Numbered stars: 1 amine (or outer) side, 2 acyl side, 3 side chain; on linkers, the order of the positions; unused ones are H or OH. Bridge positions count the residues as written; N and C are the ends. Square brackets hold non-standard residues; d marks the D form. Peptide text beside a SMILES is read from it. I, II: the chains in the order shown. * marks the point of attachment. Dolaproine = CO[C@@H]([C@@H]1CCCN1)[C@@H](C)C(=O)O; Dil = CC[C@H](C)[C@H](NC)[C@@H](CC(=O)O)OC; X2 = O=C1CC([*:2])C(=O)N1CCCCCC(=O)[*:1]; γGlu = O=C(O)[C@H](CCC(=O)[*:2])N[*:1]; PABC = O=C(OCc1ccc(N[*:1])cc1)[*:2]; X1 = C[C@@H](N*)[C@@H](O)c1ccccc1; Trx = NC[C@H]1CC[C@H](C(=O)O)CC1; Cit = NC(=O)NCCC[C@H](N)C(=O)O; NMeV = CN[C@H](C(=O)O)C(C)C; CO = O=C([*:1])[*:2]; Ahx = NCCCCCC(=O)O
Tests used:
orthotopic PC3pip tumors = test: Orthotopic survival study; type: in vivo, mice; conditions: 3860 nmol/kg, five mice per group
Description: Surgical orthotopic tumor implantation was performed as previously reported. Tumor growth/size was monitored using Siemens Acuson S2000 ultrasound scanner. When the tumors were at the appropriate size (5 mm as measured by ultrasound, approximately 2 weeks) animals were given PSMA-1-VcMMAE, PSMA-1-VcMMAE-Cy5.5, or PBS every four days with a total of 5 doses. Tumors were monitored every other day by ultrasound. Each group had five mice.

[1] = tested on: PSMA-negative PC3flu cells; test: In vitro cytotoxicity assay (CCK-8), PC3flu; type: cell-based, human; conditions: versus PSMA-1-VcMMAE-Cy5.5
Description: (§1) Cells (1,000/well) were seeded in 96-well culture plates the day before treatment. Cells were incubated with various concentrations of drugs for 72 hours and cell viability evaluated by CCK-8 (Dojindo). The concentration required to reach 50% of cell proliferation was determined (IC50) by GraphPad Prism 3.0.

[2] = In vitro cytotoxicity assay (CCK-8), PC3flu; type: cell-based, human; conditions: 72 hours incubation, CCK-8; read-out: IC50 cytotoxicity, PC3flu cells
Description: as §1

[3] = Maximum tolerated dose (MTD); type: in vivo, mice
Excerpt: Mice were monitored daily for 14 days.

[4] = tested on: PSMA-positive PC3pip cells; test: In vitro cytotoxicity assay (CCK-8), PC3pip; type: cell-based, human
Description: as §1

[5] = In vitro cytotoxicity assay (CCK-8), PC3pip; type: cell-based, human; conditions: 72 hours incubation
Description: as §1

[6] = tested on: metastatic PC3pip model (GFP labeled PC3pip cells); test: Metastatic survival study; type: in vivo, mice
Description: Male athymic nude mice were injected into the left ventricle of the heart with 1×10^5 GFP labeled PC3pip cells to generate bone metastasis. One week later mice received 160 nmol/kg PSMA-1-VcMMAE-Cy5.5 or PBS every 4 days with a total of 5 doses and the progression of disease was monitored by GFP imaging. Five mice were used in each group.

[7] = tested on: heterotopic PC3pip tumors; test: Heterotopic survival study; type: in vivo, mice
Excerpt: Male athymic nude mice were implanted subcutaneously with 1×10^6 of PC3pip cells under the right dorsum of the mice. When tumor size reached approximately 100 mm^3 (tumor volume=Length×width^2/2), mice received drugs through tail vein injection. […] Animals were weighed and tumor size measured every other day for 90 days. Cures were defined as no tumor present at end of the 90-day study. When tumors became too large or animals were moribund they were euthanized. Five mice were used in each group.

PSMA [8] = biological target: T1, PSMA (Homo sapiens, UniProt Q04609); test: Competitive binding assay (3H-ZJ24 displacement), Example 1; conditions: PC3pip cells, 10 nM 3H-ZJ24; read-out: IC50, concentration required to inhibit 50% of binding
T1 construct: expressed in transfected cells; host or cells: PC3pip cells (PC3 retrovirally transduced with PSMA), from Dr. Michel Sadelain, MSKCC
Description: The assay was carried as previously reported by incubation PC3pip cells with different concentrations of drug conjugates in the presence of 10 nM N—[N—[(S)-1,3-dicarboxypropyl]carbamoyl]-S-[^3H]-methyl-L-cysteine (^3H-ZJ24) (GE Healthcare Life Sciences, Pittsburgh, PA). Radioactivity of cell pellet was counted by scintillation counter.

PSMA [9] = biological target: T1, PSMA; test: Competition binding studies, Example 2; conditions: PC3pip cells, 12 nM 3H-ZJ24, 1 h, 37° C.; read-out: IC50, concentration required to inhibit 50% of the binding
Description: PC3pip cells ([…]) was suspended in 200 μL of 50 mM Tris buffer, pH 7.5. The cells were incubated at 37° C. with different concentrations of PSMA-1-MMAE-IR700 or ZJ24 in the presence of 12 nM of 3H-ZJ24 for 1 h. The cells were then washed 3 times with cold PBS and cell-associated radioactivity was measured by scintillation counting. The concentration required to inhibit 50% of the binding (IC50) was determined by GraphPad Prism 3.0. Studies were performed in triplicate.

T1 sequence (Q04609 whole entry): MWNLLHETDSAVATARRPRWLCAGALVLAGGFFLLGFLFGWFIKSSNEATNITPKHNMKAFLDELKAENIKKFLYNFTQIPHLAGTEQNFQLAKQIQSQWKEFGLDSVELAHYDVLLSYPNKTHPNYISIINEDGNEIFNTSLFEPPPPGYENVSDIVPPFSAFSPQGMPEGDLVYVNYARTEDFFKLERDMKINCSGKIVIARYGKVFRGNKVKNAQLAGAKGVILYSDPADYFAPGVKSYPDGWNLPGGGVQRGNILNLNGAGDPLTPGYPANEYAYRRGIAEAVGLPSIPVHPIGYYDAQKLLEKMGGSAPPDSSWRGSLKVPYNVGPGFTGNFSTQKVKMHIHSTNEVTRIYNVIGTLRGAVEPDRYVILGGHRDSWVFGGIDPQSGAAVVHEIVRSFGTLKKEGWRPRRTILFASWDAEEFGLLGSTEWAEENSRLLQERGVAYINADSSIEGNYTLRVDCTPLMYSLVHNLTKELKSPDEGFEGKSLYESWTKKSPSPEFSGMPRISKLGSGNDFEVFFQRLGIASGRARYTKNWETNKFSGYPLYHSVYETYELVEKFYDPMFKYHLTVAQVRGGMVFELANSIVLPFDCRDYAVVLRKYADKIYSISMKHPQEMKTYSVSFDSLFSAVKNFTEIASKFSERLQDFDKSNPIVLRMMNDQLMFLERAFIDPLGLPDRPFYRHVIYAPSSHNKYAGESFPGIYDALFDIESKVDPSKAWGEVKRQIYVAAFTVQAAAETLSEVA

IC50 (PSMA [8]) [nM] | IC50 (PSMA [9]) [nM] | SMILES | tumor free mice (orthotopic PC3pip tumors) | increase of IC50 on removal of the Cy5.5 moiety, PC3flu cells [1] [fold] | IC50 [2] [nM] | therapeutic index (TI) ([3]; MTD / lowest effective dose) | MTD ([3]; mouse, in vivo, iv, single dose i.v., tumor-free athymic nude mice) [µmol/kg] | MTD relative to MMAE ([3]; single dose i.v.) | ratio of IC50's between PC3pip and PC3flu cells ([4]; 72 hours incubation) | effect of protease inhibitor E64 on cell killing ([4]; co-incubation with 50 μM E64) | increase of IC50 on removal of the Cy5.5 moiety, PC3pip cells ([4]; versus PSMA-1-VcMMAE-Cy5.5) [fold] | IC50 ([5]; CCK-8, read-out: IC50 cytotoxicity, PC3pip cells) [nM] | selectivity ratio ([5]; read-out: selectivity, differential cytotoxicity between PC3pip and PC3flu cells) | effect on survival and body weight, words [6] | inhibition of PC3pip versus PC3flu tumor growth ([7]; 955 nmol/kg) | cure (tumor free at 90 days) ([7]; 3820 nmol/kg i.v. every 4 days, 5 doses) [%] | tumor growth when given every 7 days ([7]; dosing every 7 days) | body weight loss ([7]; even at the highest dose tested (3820 nmol/kg)) | dose at which tumor growth inhibition starts ([7]; mouse, in vivo) [nmol/kg]
 |  | CC[C@H](C)[C@@H]([C@@H](CC(=O)N1CCC[C@H]1[C@H](OC)[C@@H](C)C(=O)N[C@H](C)[C@@H](O)c1ccccc1)OC)N(C)C(=O)[C@@H](NC(=O)[C@H](C(C)C)N(C)C(=O)OCc1ccc(NC(=O)[C@H](CCCNC(N)=O)NC(=O)[C@@H](NC(=O)CCCCCN2C(=O)CC(SC[C@H](NC(=O)[C@H](CCC(=O)O)NC(=O)[C@H](CCC(=O)O)NC(=O)[C@H](CCC(=O)O)NC(=O)CCCCCNC(=O)[C@H]3CC[C@H](CNC(=O)CC[C@H](NC(=O)N[C@@H](CCC(=O)O)C(=O)O)C(=O)O)CC3)C(=O)NCCCCCC(=O)N[C@@H](CCCCN)C(N)=O)C2=O)C(C)C)cc1)C(C)C (stereo partly drawn) [PSMA-1-VcMMAE] (I: V[Cit][PABC][NMeV]V[Dil][Dolaproine]-X1 / II: {Glu-CO-γGlu-Trx-Ahx}-EEEC[Ahx]K-NH2; linker I:N-II:4 via X2) | 1 | 11.1 | 222 | 40 | 7.64 | more than 10 fold | 48.2 | susceptible to E64 protease inhibition | 6.2 | 4.64 | 48 | prolong animal survival time with no body weight loss | significantly more effective at inhibiting PSMA-positive PC3pip tumor growth than PSMA-negative PC3flu tumor growth | 60 | greatly inhibited tumor growth | No body weight loss | 191
11.7 | 10.7 ± 0.89 | NCCCC[C@H](NC(=O)N[C@@H](CCC(=O)O)C(=O)O)C(=O)O [ZJ24, (S)-2-(3-((S)-5-amino-1-carboxypentyl)-ureido)pentanedioic acid, reference compound] |  |  |  |  |  |  |  |  |  |  |  |  |  |  |  |  | 

Source: patent US20250332265A1, “PSMA TARGETED CONJUGATE COMPOUNDS AND USES THEREOF” (priority 2021, published 2025)
